Converted amounts (≈) assume the structure as drawn.
Legend:
BRD4 BD1 = BRD4 BD1 (Homo sapiens (Human), UniProt O60885); assay: NanoBRET bromodomain assay, NanoLuc-BRD4-BD1 fusion in HEK293 cells; format: cell-based; conditions: top concentration 10 μM
[1] = Intrinsic clearance in liver microsomes, rat; format: in vitro ADME; conditions: Method 1; for Half-Life (T1/2) (min), Rat: rat liver microsomes; for half-life at 1 μM: rat, liver microsomes, pH 7.4, rat liver microsomes, read-out: Half-Life (T1/2) (min), Rat
Description: (§1) From stock solution of compound on 10 mM DMSO, a working solution of 0.1 mM is prepared by diluting the compound in DMSO. 6.25 μL of a 20 mg/mL solution of microsomes in PBS pH 7.4 buffer is added to 216.25 μL PBS pH 7.4 buffer (final microsome concentration—0.5 mg/mL). 25 μL of 10 mM solution of NADPH in PBS pH 7.4 buffer is added to the incubations (final NADPH concentration—1 mM). The mixture is pre-warmed to 37° C. for 10 minutes. 2.5 μL of test compound working solution is added (final compound concentration—1 μM with 1% DMSO). Aliquots of 30 μL are taken from the reaction solution at 0.5, 5, 15, 30 and 60 minutes. The reaction was stopped by the addition of 5 volumes of cold acetonitrile with IS (100 nM alprazolam, 200 nM caffeine and 100 nM tolbutamide). Samples were centrifuged at 3, 220 g for 40 minutes. Aliquots of 100 μL of the supernatant are mixed with 100 μL of ultra-pure H2O and used for LC-MS/MS analysis. The percent compound remaining at each time point is calculated with respect to that of the 0.5 min sample. The data are analysed to calculate half-life. Control experiments are run without NADPH and blank samples are prepared using DMSO without the test compound.
(§2) A 50 mM stock solution (in DMSO) is prepared for the compound. From the stock solution, a working solution of 0.5 mM is prepared by diluting the compound in DMSO. This concentration of working solution is prepared considering a final concentration of 1 uM with 0.1% DMSO. The compound (1 μL of working solution) is spiked in PBS with pH 7.4 ([…]) at a concentration of 1 μM. Subsequently, 110 μL of 10 mM NADPH is added (as a co-factor). The sample is incubated at 37° C. for 15 min. Following this, pre-warmed liver microsomes (27.5 μL; final protein conc. 0.5 mg/mL) are added. The samples are then incubated at 37° C. Aliquots of samples are withdrawn at 0, 5, 15, 30, 45 and 60 min. The reaction is stopped by using chilled acetonitrile containing internal standard. The samples are centrifuged, and the supernatants analysed by LC-MS/MS. The percent compound remaining at each time point is calculated with respect to that of the 0 min sample. The data are then analysed to calculate half-life and intrinsic clearance (CLint). Control experiments are run without NADPH and blank samples are prepared using DMSO without the test compound.

[2] = Thermodynamic solubility in FaSSIF pH 6.5 buffer; format: physicochemical; conditions: Method 1 (UV-vis, 25° C., 24 hrs); for solubility thermodynamic at 24 h: FaSSIF buffer, 25 °C, pH 6.5, fassif, thermodynamic from solid
Description: FaSSIF v2 buffer is freshly prepared prior to use according to the suppliers' instructions and the pH adjusted to 6.5 using 1 M NaOH or 1 M HCl as required. From 1 mM working solution of test compound in DMSO, the λmax of the test compound is determined by scanning from 200 nm to 700 nm, in 1 nm steps with an EPOCH UV/Visible spectrophotometer (Biotek Instruments Inc.). A 12-point standard curve of compound concentration versus absorption at λmax is generated via two-fold serial dilutions of the 1 mM working solution with DMSO. Approximately 1 mg of test compound is accurately weighed into an Eppendorf tube and the appropriate volume of FaSSIF buffer is added to make a nominal concentration of 1 mg/mL. The tube is incubated on a rotator at 20 rpm, 25° C. for 24 hrs. Samples are then filtered using 0.45 μm filters (Sartorious, CAT #1776C) and the filtrate subjected to UV-vis spectroscopy analysis. The absorption at λmax is compared to the standard curve to determine the concentration of compound in solution after 24 hours.
FaSSIF buffer was prepared according to the suppliers' instructions and the pH adjusted to 6.5 using 1 M NaOH or 1 M HCl as required. […] A stir stick was added to each vial and vials sealed with a moulded PTDE/SIL 96-well plate cover. The plate was shaken at 25° C. at 1,100 rpm using an Eppendorf Thermomixer Comfort plate shaker. The plates were filtered using a vacuum manifold and diluted with a mixture of H2O and acetonitrile containing internal standard. The concentration of the test compound in the filtrate was determined by LCMS analysis with reference to the internal standards to determine the solubility in the buffer.

[3] = Sprague-Dawley rat pharmacokinetics, IV and PO cassette dosing; format: in vivo; conditions: for PO F: PO 5 mg/kg
Description: Compounds were formulated in 5% DMSO, 40% PEG-400, 55% Milli-Q water at a concentration of 0.2 mg/mL for IV and at 0.5 mg/mL for PO. Two male Sprague-Dawley rats per arm were dosed with up to 5 compounds in cassette mode, which each compound being dosed at 1 mg/kg IV and 5 mg/kg PO. Blood was sampled at various timepoints and plasma isolated. 50 μL of plasma with 5 μL of blank Sprague-Dawley rat plasma were added to 200 μL of acetonitrile containing IS mixture. The samples were vortexed for 30 s. After centrifugation at 4 degrees Celsius, 3900 rpm for 15 min, the supernatant was diluted 3 times with water. 20 μL of diluted supernatant was injected into the LC/MS/MS system for quantitative analysis and concentration of analyte determined by comparison with matrix matched standard curve. WinNonlin (Phoenix™, version 8.3) or other similar software may be used for pharmacokinetic calculations.

BRD4 BD2 = BRD4 BD2 (Homo sapiens (Human), UniProt O60885); assay: NanoBRET bromodomain assay, NanoLuc-BRD4-BD2 fusion in HEK293 cells; conditions: for IC50: BRD4 BD2 (IC50), NanoBRET, HEK293 cells, top concentration 10 μM; for Fold selectivity: IC50 for BRD4 BD1 divided by IC50 for BRD4 BD2, qualitative if an IC50 is at the upper limit;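 on all read-outs here: tracer displacement BRET read in transfected cells after 2 h compound exposure at 37 °C, signal in milliBRET units corrected against no-tracer background wells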
[4] = Intrinsic clearance in liver microsomes, mouse; format: in vitro ADME; conditions: pH 7.4, Method 2, read-out: Half-Life (T1/2) (min), Mouse
Description: as §1, §2

| SMILES | IC50 (BRD4 BD1) | Half-Life (T1/2) (min), Rat [1] | Thermodynamic Solubility FaSSIF pH 6.5 (μM) [2] | IV T1/2 ([3]; IV 1 mg/kg, Method 1) | PO F ([3]; Method 1) | IC50 (BRD4 BD2) | Fold selectivity (BRD4 BD2) | solubility thermodynamic at 24 h [2] | half-life at 1 μM [1] | half-life ([3]; male, Sprague-Dawley, rat, plasma, iv, 1 mg/kg, IV 1 mg/kg, Method 1, read-out: IV T1/2 (converted)) | half-life at 1 μM [4] |
| --- | --- | --- | --- | --- | --- | --- | --- | --- | --- | --- | --- |
| CNC(=O)c1[nH]c(C(=O)N[C@H]2CC[C@H](O)CC2)cc1OC(C)c1ccccc1 (single isomer, unassigned) [Example 98, N^5-(trans-4-hydroxycyclohexyl)-N^2-methyl-3-(1-phenylethoxy)-1H-pyrrole-2,5-dicarboxamide] | ≥ 10 µM | >60 min | 429 μM | 1.2 h | 31% | > 10 µM | — (Fold ≥0 and ≤2) |  |  |  |  |
| CNC(=O)c1[nH]c(C(=O)N[C@H]2CC[C@H](OC)CC2)cc1OC(C)c1ccccc1 (single isomer, unassigned) [Example 99, N^5-(trans-4-methoxycyclohexyl)-N^2-methyl-3-(1-phenylethoxy)-1H-pyrrole-2,5-dicarboxamide] | ≥ 10 µM | 39 min |  |  |  | 0.05 to 0.2 µM | XX (Fold >50 and ≤200) | 359 µM (≈ 143 µg/mL) |  |  |  |
| CNC(=O)c1[nH]c(C(=O)N[C@H]2CC[C@H](OC)CC2)cc1OC(C)c1ccccc1 (single isomer, unassigned) [Example 100, N^5-(trans-4-methoxycyclohexyl)-N^2-methyl-3-(1-phenylethoxy)-1H-pyrrole-2,5-dicarboxamide] | ≥ 10 µM | 19 min | 377 μM |  |  | > 10 µM | — (Fold ≥0 and ≤2) |  |  |  |  |
| CNC(=O)c1[nH]c(C(=O)NC2CCC2)cc1OC(C)c1ccccc1 (single isomer, unassigned) [Example 102, N^5-cyclobutyl-N^2-methyl-3-(1-phenylethoxy)-1H-pyrrole-2,5-dicarboxamide] | ≥ 10 µM |  |  |  | 13% | > 10 µM | — (Fold ≥0 and ≤2) | 188 µM (≈ 64.2 µg/mL) | 41 min | 2.7 h |  |
| CNC(=O)c1[nH]c(C(=O)NC2CCC(F)(F)CC2)cc1OC(C)c1ccccc1 (single isomer, unassigned) [Example 103, N^5-(4,4-difluorocyclohexyl)-N^2-methyl-3-(1-phenylethoxy)-1H-pyrrole-2,5-dicarboxamide] | ≥ 10 µM |  |  |  |  | 0.05 to 0.2 µM | XX (Fold >50 and ≤200) | 57 µM (≈ 23.1 µg/mL) | 19 min |  |  |
| CNC(=O)c1[nH]c(C(=O)NC2CCC(F)(F)CC2)cc1OC(C)c1ccccc1 (single isomer, unassigned) [Example 104, N^5-(4,4-difluorocyclohexyl)-N^2-methyl-3-(1-phenylethoxy)-1H-pyrrole-2,5-dicarboxamide] | ≥ 10 µM | 10 min | 47 μM |  |  | > 10 µM | — (Fold ≥0 and ≤2) |  |  |  |  |
| CNC(=O)c1[nH]c(C(=O)N[C@H]2CCOC2)cc1O[C@@H](C)c1ccccc1 [Example 113, N^2-methyl-3-((S)-1-phenylethoxy)-N^5-((S)-tetrahydrofuran-3-yl)-1H-pyrrole-2,5-dicarboxamide] | ≥ 10 µM |  |  |  |  | 0.2 to 1 µM | X (Fold >2 and ≤50) |  |  |  | > 60 min |
| CNC(=O)c1[nH]c(C(=O)N[C@@H]2CCOC2)cc1O[C@@H](C)c1ccccc1 [Example 114, N^2-methyl-3-((S)-1-phenylethoxy)-N^5-((R)-tetrahydrofuran-3-yl)-1H-pyrrole-2,5-dicarboxamide] | ≥ 10 µM |  |  |  |  | 0.2 to 1 µM | X (Fold >2 and ≤50) |  |  |  | > 60 min |
| CNC(=O)c1[nH]c(C(=O)N[C@H]2CC[C@H](O)C2)cc1O[C@@H](C)c1ccccc1 [Example 115, N^5-((1S,3S)-3-hydroxycyclopentyl)-N^2-methyl-3-((S)-1-phenylethoxy)-1H-pyrrole-2,5-dicarboxamide] | ≥ 10 µM |  |  |  |  | 0.05 to 0.2 µM | XX (Fold >50 and ≤200) |  |  |  | > 60 min |
| CNC(=O)c1[nH]c(C(=O)NC23CC(C2)C3)cc1O[C@@H](C)c1ccccc1 [Example 117, (S)—N^5-(bicyclo [1.1.1]pentan-1-yl)-N^2-methyl-3-(1-phenylethoxy)-1H-pyrrole-2,5-dicarboxamide] | ≥ 10 µM |  |  |  |  | 0.05 to 0.2 µM | XX (Fold >50 and ≤200) |  |  |  | > 60 min |
| CNC(=O)c1[nH]c(C(=O)NC23CC(O)(C2)C3)cc1O[C@@H](C)c1ccccc1 [Example 118, (S)—N^5-(3-hydroxybicyclo [1.1.1]pentan-1-yl)-N^2-methyl-3-(1-phenylethoxy)-1H-pyrrole-2,5-dicarboxamide] | ≥ 10 µM |  |  |  |  | 0.05 to 0.2 µM | XX (Fold >50 and ≤200) |  |  |  | > 60 min |
